# Marks after values point to notes of the source that are not given here.
# Test system: male and female Sprague–Dawley rats
# Assay: 90-day subchronic oral gavage toxicity study
# Assay type: in vivo, rat
# Method: Subchronic (90-day) studies were performed in accordance with current U.S. EPA’s Toxic Substances Control Act Good Laboratory Practice (GLP) Standards, with the following two general exceptions to the GLP guidelines: Analysis of the dose formulations was conducted according to RTI-approved Standard Operating Procedures, and corn oil (the vehicle) was not characterized (certificate of analysis from the vendor is available in the appendices to the final reports). Male and female Sprague–Dawley rats (five dose levels plus a control, n = 10/sex/dose group, corn oil vehicle dose volume of 3 mL/kg; oral gavage) were used in these studies, and the rats were euthanized on SD 91. The dose levels for PFHI were 0, 12.5, 25, 50, 100, and 200 mg/kg-day. The dose levels for MHFPK were 0, 18.8, 37.5, 75, 150, and 300 mg/kg-day. The dose levels for PFNAC were 0, 0.1, 0.3, 1.0, 3.0, and 10 mg/kg-day for male rats and 0, 0.3, 1.0, 3.0, 10, and 30 mg/kg-day for female rats. For CTFPA, the dose levels were 0, 1.9, 3.8. 7.5, 15, and 30 mg/kg-day for male rats and 0, 6.3, 12.5, 25, 50, and 100 mg/kg-day for female rats. For each PFAS, three batches of dosing solution were prepared. The time between the batch preparation of the dosing solutions ranged between 29 and 39 days. Blood samples were collected from all the rats at termination for serum chemistry, hematology, coagulation, and the analysis of the parent PFAS chemical in the plasma. In vivo data collection and further detail on the endpoints examined postmortem are described below.
# The rats were observed twice daily for morbidity and mortality throughout the study period. At least once prior to randomization to test groups and weekly thereafter, the rats were physically examined, and bodyweights were obtained. Feed consumption was quantified weekly starting on SD 1.
# Neurotoxicity was evaluated using the functional observational battery (FOB) and measuring locomotor activity (LMA) 2–4 h post dosing on SDs 78–80 and 80–84, respectively. For both the 14- and 90-day studies, an ophthalmologic examination was conducted prior to randomization and near the end of the study, using indirect ophthalmoscopy and slit–lamp biomicroscopy (as needed) after the administration of a mydriatic solution.
# Hematology, biochemistry, and coagulation endpoints were measured at the termination of the study. A Siemens Advia 2120i hematology analyzer (Siemens Healthineers, Erlangen, Germany) was used to measure (or calculate) the parameters related to the complete blood count, leukocyte differential count, and reticulocyte count. The hematology parameters are listed and described in Table 2. The prothrombin time […] and activated partial thromboplastin time (APTT) were measured using an Instrumentation Laboratory (Bedford, MA, USA) ACL Elite Pro coagulation analyzer (laser–nephelometric centrifugal method).
# At necropsy, the rats were visually examined for external abnormalities and organ weights (absolute and relative to the BW and brain weight), which were recorded (paired organs weighed together). The tissues were preserved in 10% neutral buffered formalin (NBF), except for the ocular tissues, testes, and epididymides, which were preserved in modified Davidson’s fixative and later transferred to 10% NBF. Bone marrow smears were prepared from the femurs, and the slides were air-dried, fixed in methanol, stained, and stored at room temperature for possible future evaluation. The preserved tissues were embedded in paraffin, sectioned, stained with hematoxylin and eosin, and examined by a board-certified veterinary pathologist.
# Statistical analysis was performed using Provantis™ Version 10 or greater (Instem LSS, Limited; Stone, Staffordshire, UK). Differences among the treatment groups compared to the control were evaluated using one-way analysis of variance (ANOVA) if the underlying assumptions of a normal distribution (Shapiro–Wilk test) and the homogeneity of the variance (Levene’s test) were satisfied. […]
smiles,measurement,setting,value
"C=CC(=O)OCC(F)(F)C(F)(F)C(F)(F)C(F)(F)C(F)(F)C(F)(F)C(F)(F)C(F)F [PFNAC, 1H,1H,9H-Perfluorononyl acrylate]",Bodyweight (BW) and bodyweight gain,"90-day, both sexes, all doses",None in females; effects in males at 10 mg/kg-day were not considered adverse because they did not persist through the study (days 8–29)
same,Clinical observations,"90-day, both sexes, all doses",None
same,Coagulation endpoints,"90-day, both sexes, all doses","Males at ≥1 mg/kg-day, mildly shortened APTT, not considered as biologically significant"
same,Feed consumption,"90-day, both sexes, all doses","Increased in males and females in some dose groups during some time periods, not considered as adverse (not persistent or consistent although sometimes statistically significant)"
same,Functional observational battery,"90-day, both sexes, all doses","Some changes, all considered as incidental and non-adverse"
same,Gross lesions,"90-day, both sexes, all doses",None considered as PFNAC related
same,Hematology,"90-day, both sexes, all doses","No changes in females; Males—minimal decreases in red cell mass (HGB, HCT, and RBC) at ≥0.1 mg/kg-day, minimal decreases in absolute reticulocytes at ≥1 mg/kg and from minimal to mild decreases in neutrophils and eosinophils at ≥0.1 mg/kg-day ^2"
same,Histopathology,"90-day, both sexes, all doses",The kidney and liver ^4 of males at ≥0.3 mg/kg-day and females at 30 mg/kg-day; the thyroid gland in males
same,Locomotor activity,"90-day, both sexes, all doses",No effects
same,Morbidity and mortality,"90-day, both sexes, all doses",None
same,Ophthalmology,"90-day, both sexes, all doses",No ocular lesions
same,Organ weight changes,"90-day, both sexes, all doses",Mean absolute and/or relative organ weight increases in the liver and kidneys of males at ≥0.3 mg/kg-day and females at ≥3 mg/kg-day
same,"BMD10, absolute kidney weight increase",female,13.4 mg/kg-day
same,"BMD10, absolute liver weight increase",female,11.2 mg/kg-day
same,"BMD10, relative kidney weight increase",female,6.0 mg/kg-day
same,"BMD10, relative liver weight increase",female,12.8 mg/kg-day
same,"BMDL, absolute kidney weight increase",female,2.68 mg/kg-day
same,"BMDL, absolute liver weight increase",female,8.8 mg/kg-day
same,"BMDL, relative kidney weight increase",female,0.8 * mg/kg-day
same,"BMDL, relative liver weight increase",female,10.1 mg/kg-day
same,"LOEL, absolute kidney weight increase",female,10 mg/kg-day
same,"LOEL, absolute liver weight increase",female,30 mg/kg-day
same,"LOEL, relative kidney weight increase",female,3 mg/kg-day
same,"LOEL, relative liver weight increase",female,30 mg/kg-day
same,"NOEL, absolute kidney weight increase",female,3 mg/kg-day
same,"NOEL, absolute liver weight increase",female,10 mg/kg-day
same,"NOEL, relative kidney weight increase",female,1 mg/kg-day
same,"NOEL, relative liver weight increase",female,10 mg/kg-day
same,A/G,"female, 0.1 mg/kg-day",1.11±0.08 ratio
same,ALB,"female, 0.1 mg/kg-day",4.36 ± 0.22 g/dL
same,ALPi,"female, 0.1 mg/kg-day",78.0±24.1 U/L
same,BUN,"female, 0.1 mg/kg-day",15.7 ± 1.3 mg/dL
same,CHOL,"female, 0.1 mg/kg-day",102.1 ± 16.7 mg/dL
same,GLOB,"female, 0.1 mg/kg-day",3.93 ± 0.12 g/dL
same,GLUC,"female, 0.1 mg/kg-day",99.4 ± 11.9 mg/dL
same,% BW Gain,"female, 0.3 mg/kg-day",47.16%
same,"% Diff, % BW Gain","female, 0.3 mg/kg-day",-3.35%
same,"% Diff, Total BW change","female, 0.3 mg/kg-day",-2.86%
same,"% Diff, Total Food Consumed","female, 0.3 mg/kg-day",4.16%
same,A/G,"female, 0.3 mg/kg-day",1.10±0.06 ratio
same,ABEOS,"female, 0.3 mg/kg-day",0.089±0.035 K/µL
same,ABNEUT,"female, 0.3 mg/kg-day",1.725±1.311 K/µL
same,ABRETi,"female, 0.3 mg/kg-day",188.23±26.07 10^9/L
same,ALB,"female, 0.3 mg/kg-day",4.44 ± 0.33 g/dL
same,ALPi,"female, 0.3 mg/kg-day",54.8±10.4 U/L
same,APTT,"female, 0.3 mg/kg-day",21.25 s
same,BUN,"female, 0.3 mg/kg-day",16.8 ± 3.3 mg/dL
same,CHOL,"female, 0.3 mg/kg-day",99.7 ± 15.0 mg/dL
same,GLOB,"female, 0.3 mg/kg-day",4.05 ± 0.18 g/dL
same,GLUC,"female, 0.3 mg/kg-day",104.6 ± 13.0 mg/dL
same,HCT,"female, 0.3 mg/kg-day",41.35±1.64%
same,HGB,"female, 0.3 mg/kg-day",13.21 ± 0.43 g/dL
same,Kidney Weight,"female, 0.3 mg/kg-day",1.74 g
same,Kidney/Body Weight,"female, 0.3 mg/kg-day",0.59%
same,Kidney/Brain Weight,"female, 0.3 mg/kg-day",91.4%
same,Liver Weight,"female, 0.3 mg/kg-day",7.76 g
same,Liver/Body Weight,"female, 0.3 mg/kg-day",2.62%
same,Liver/Brain Weight,"female, 0.3 mg/kg-day",408%
same,MPV,"female, 0.3 mg/kg-day",7.62 ± 0.63 fL
same,PT,"female, 0.3 mg/kg-day",13.79 s
same,RBC,"female, 0.3 mg/kg-day",7.177±0.276 M/µL
same,Total BW change,"female, 0.3 mg/kg-day",98.25 g
same,Total Food Consumed,"female, 0.3 mg/kg-day",1466 g
same,% BW Gain,"female, 1.0 mg/kg-day",45.99%
same,"% Diff, % BW Gain","female, 1.0 mg/kg-day",-5.73%
same,"% Diff, Total BW change","female, 1.0 mg/kg-day",-6.27%
same,"% Diff, Total Food Consumed","female, 1.0 mg/kg-day",2.64%
same,A/G,"female, 1.0 mg/kg-day",1.13±0.06 ratio
same,ABEOS,"female, 1.0 mg/kg-day",0.086±0.028 K/µL
same,ABNEUT,"female, 1.0 mg/kg-day",1.468±0.616 K/µL
same,ABRETi,"female, 1.0 mg/kg-day",180.48±14.00 10^9/L
same,ALB,"female, 1.0 mg/kg-day",4.43 ± 0.26 g/dL
same,ALPi,"female, 1.0 mg/kg-day",52.1±13.7 U/L
same,APTT,"female, 1.0 mg/kg-day",20.13 s
same,BUN,"female, 1.0 mg/kg-day",13.9 ± 2.0 mg/dL
same,CHOL,"female, 1.0 mg/kg-day",94.3 ± 18.7 mg/dL
same,GLOB,"female, 1.0 mg/kg-day",3.94 ± 0.19 g/dL
same,GLUC,"female, 1.0 mg/kg-day",100.9 ± 12.7 mg/dL
same,HCT,"female, 1.0 mg/kg-day",41.13±1.98%
same,HGB,"female, 1.0 mg/kg-day",13.19 ± 0.73 g/dL

# Reference: paper PMC12298827, “Subchronic Toxicities of Four Per- and Polyfluoroalkyl Substances (PFASs) by Oral Exposure in Sprague–Dawley Rats” (Toxics, 2025)
